One series concerns HeLa. Put plainly: cells. The following applies: Homo sapiens.
The subject of a further series is HCT-116. Description: cells. The settings on record: Homo sapiens.
Series [1] in a line: Solubility in 20% hydroxyl propyl beta-cyclodextrin. The class given is physicochemical. The following applies: 20% hydroxypropyl beta-cyclodextrin solution.
The nature of series [2]: Inhibition of Aurora2. More on the design: species or system Homo sapiens.
In series [3] the target is Vascular endothelial growth factor receptor 2 (Homo sapiens, UniProt P35968). Put plainly: Inhibition of VEGFR2.
Chain of Vascular endothelial growth factor receptor 2 (P35968 whole entry): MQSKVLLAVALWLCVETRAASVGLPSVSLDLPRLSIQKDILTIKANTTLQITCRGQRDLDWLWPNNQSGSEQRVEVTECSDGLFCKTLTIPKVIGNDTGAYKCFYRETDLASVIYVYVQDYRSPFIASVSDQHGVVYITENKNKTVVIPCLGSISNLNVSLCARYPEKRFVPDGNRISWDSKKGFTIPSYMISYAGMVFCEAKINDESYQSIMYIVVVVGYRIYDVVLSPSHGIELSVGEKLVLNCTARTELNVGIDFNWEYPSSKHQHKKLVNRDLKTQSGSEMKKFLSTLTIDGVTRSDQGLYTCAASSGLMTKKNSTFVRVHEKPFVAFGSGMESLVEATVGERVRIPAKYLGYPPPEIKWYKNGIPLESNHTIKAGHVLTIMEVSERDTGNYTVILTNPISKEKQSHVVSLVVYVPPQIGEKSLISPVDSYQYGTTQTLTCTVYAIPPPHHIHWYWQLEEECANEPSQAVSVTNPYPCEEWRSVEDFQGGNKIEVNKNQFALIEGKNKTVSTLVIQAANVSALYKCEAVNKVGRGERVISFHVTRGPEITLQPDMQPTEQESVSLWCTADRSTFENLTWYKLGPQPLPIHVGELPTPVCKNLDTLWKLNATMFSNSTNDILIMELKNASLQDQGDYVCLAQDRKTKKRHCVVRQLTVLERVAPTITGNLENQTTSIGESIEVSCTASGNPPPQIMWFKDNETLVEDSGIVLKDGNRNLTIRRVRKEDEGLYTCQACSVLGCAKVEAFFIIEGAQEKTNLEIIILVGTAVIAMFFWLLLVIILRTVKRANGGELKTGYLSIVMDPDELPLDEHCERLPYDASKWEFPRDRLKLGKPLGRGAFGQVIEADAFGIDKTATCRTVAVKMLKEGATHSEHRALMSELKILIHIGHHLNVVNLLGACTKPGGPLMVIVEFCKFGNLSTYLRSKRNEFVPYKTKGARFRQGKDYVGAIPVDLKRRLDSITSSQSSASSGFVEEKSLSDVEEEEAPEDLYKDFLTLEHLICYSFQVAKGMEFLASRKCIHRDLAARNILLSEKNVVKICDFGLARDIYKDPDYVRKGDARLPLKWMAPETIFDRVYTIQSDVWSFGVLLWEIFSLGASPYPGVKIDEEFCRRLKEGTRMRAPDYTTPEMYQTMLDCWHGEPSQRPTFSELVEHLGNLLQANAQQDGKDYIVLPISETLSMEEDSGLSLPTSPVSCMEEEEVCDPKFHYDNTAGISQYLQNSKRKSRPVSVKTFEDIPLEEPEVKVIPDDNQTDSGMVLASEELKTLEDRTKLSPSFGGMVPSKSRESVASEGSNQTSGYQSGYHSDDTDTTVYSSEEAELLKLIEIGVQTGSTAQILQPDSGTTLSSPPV
For a further series, the system named is A-375. Put plainly: cells. The following applies: Homo sapiens.
Series [4] can be described thus: Cmax in rat at 10 mg/kg, po. It is filed as ADME, organism-based. More on the design: dose 10 mg/kg, route oral. The following applies: in vivo.
Series [5] can be described thus: AUC in rat at 10 mg/kg, po. The class given is ADME, organism-based. More on the design: dose 10 mg/kg, route oral. The following applies: plasma.
The nature of series [6]: Cmax in rat at 2 mg/kg, iv. It is filed as ADME, organism-based. The following applies: in vivo. More on the design: dose 2 mg/kg, route intravenous.
The test system of the next series is Rattus norvegicus. Put plainly: (§1) AUC in rat at 2 mg/kg, iv. The class given is ADME, organism-based, Plasma. Further details: dose 2 mg/kg, route intravenous. The following applies: in vivo.
Series [7] in a line: Half life in rat at 2 mg/kg, iv. It is filed as ADME, organism-based. Further details: dose 2 mg/kg, route intravenous. The following applies: in vivo.
Series [8] in a line: Half life in rat at 10 mg/kg, po. It is filed as ADME, organism-based. Further details: dose 10 mg/kg, route oral. The settings on record: in vivo.
A short description of series [9]: Oral bioavailability in rat at 10 mg/kg. It is filed as ADME, organism-based. The settings on record: in vivo.
Series [10] concerns the target Receptor tyrosine-protein kinase erbB-2 (Homo sapiens, UniProt P04626). Put plainly: Inhibition of HER2.
For series [11], the target named is Proto-oncogene tyrosine-protein kinase receptor Ret (Homo sapiens, UniProt P07949). Description: Inhibition of RET.
Chain of Proto-oncogene tyrosine-protein kinase receptor Ret (P07949 whole entry): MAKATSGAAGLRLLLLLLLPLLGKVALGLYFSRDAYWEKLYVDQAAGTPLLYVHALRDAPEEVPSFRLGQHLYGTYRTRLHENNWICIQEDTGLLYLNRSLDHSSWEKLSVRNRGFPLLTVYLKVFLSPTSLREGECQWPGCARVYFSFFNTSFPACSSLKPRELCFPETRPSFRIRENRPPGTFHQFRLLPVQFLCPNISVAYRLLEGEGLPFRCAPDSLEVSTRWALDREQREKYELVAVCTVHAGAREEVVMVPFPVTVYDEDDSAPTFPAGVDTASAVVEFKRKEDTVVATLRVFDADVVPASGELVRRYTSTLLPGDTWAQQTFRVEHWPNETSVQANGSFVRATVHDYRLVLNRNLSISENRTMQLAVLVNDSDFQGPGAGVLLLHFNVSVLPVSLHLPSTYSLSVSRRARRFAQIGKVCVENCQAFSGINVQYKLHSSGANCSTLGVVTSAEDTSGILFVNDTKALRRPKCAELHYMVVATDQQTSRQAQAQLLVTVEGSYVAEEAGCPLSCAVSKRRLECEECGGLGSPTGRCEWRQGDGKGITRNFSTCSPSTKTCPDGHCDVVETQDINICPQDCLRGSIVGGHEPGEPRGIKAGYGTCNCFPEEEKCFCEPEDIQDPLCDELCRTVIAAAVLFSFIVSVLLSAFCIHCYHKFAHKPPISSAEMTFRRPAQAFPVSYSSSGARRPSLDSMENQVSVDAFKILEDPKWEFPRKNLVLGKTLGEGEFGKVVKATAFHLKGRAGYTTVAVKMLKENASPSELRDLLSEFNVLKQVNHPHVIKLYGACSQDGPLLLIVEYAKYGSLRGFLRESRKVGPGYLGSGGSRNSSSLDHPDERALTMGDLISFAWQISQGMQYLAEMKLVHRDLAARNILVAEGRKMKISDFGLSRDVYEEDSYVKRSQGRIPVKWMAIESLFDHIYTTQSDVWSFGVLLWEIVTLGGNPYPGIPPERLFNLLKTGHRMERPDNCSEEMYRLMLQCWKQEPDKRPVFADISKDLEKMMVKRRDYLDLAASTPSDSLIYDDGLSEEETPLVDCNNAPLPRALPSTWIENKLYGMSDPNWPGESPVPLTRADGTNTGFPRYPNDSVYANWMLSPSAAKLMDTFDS
Series [12] addresses Cyclin-dependent kinase 1 (Homo sapiens, UniProt P06493). Description: Inhibition of CDK1.
Series [13] can be described thus: Clearance in rat at 2 mg/kg, iv. It is filed as ADME, organism-based. More on the design: dose 2 mg/kg, route intravenous. The settings on record: in vivo.
A short description of series [14]: as §1. It is filed as ADME, organism-based, Plasma. More on the design: dose 2 mg/kg, route intravenous. The following applies: plasma.

Molecules are shown by their SMILES. ≈ marks a conversion by molar mass, not a printed value. Bounds are passed on as bounds.

Chain of Receptor tyrosine-protein kinase erbB-2 (P04626 whole entry): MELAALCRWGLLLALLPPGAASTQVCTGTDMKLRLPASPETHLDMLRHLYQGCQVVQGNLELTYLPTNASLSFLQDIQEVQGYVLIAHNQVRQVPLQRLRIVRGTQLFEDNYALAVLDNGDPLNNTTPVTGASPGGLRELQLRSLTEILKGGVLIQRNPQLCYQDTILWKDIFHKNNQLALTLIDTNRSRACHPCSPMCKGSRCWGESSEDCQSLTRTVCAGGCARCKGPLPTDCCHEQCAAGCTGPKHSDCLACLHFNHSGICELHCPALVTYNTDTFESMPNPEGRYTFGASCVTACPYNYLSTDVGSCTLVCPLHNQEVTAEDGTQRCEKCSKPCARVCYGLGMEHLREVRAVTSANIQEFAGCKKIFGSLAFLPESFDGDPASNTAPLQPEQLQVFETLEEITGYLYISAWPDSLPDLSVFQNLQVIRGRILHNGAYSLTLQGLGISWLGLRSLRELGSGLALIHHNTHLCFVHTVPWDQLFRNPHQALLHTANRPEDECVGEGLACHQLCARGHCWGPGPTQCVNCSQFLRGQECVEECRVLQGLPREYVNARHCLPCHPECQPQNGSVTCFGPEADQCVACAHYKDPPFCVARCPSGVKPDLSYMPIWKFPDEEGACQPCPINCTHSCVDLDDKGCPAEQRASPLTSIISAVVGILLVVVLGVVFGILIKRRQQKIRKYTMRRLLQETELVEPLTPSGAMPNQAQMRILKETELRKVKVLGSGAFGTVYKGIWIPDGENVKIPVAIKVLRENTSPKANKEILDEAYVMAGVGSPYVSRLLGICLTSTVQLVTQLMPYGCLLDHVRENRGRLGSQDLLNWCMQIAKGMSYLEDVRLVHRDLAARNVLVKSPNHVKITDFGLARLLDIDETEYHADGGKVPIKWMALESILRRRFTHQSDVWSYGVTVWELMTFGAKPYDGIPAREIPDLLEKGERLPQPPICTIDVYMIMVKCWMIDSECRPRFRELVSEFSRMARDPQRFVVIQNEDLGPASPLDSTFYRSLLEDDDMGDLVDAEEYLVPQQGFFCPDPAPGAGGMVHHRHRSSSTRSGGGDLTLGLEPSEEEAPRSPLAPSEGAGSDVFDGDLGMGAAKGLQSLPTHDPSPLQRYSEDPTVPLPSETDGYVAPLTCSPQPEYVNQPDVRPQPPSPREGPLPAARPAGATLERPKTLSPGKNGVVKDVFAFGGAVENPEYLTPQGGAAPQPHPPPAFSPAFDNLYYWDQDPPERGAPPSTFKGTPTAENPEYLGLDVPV
Chain of Cyclin-dependent kinase 1 (P06493 whole entry): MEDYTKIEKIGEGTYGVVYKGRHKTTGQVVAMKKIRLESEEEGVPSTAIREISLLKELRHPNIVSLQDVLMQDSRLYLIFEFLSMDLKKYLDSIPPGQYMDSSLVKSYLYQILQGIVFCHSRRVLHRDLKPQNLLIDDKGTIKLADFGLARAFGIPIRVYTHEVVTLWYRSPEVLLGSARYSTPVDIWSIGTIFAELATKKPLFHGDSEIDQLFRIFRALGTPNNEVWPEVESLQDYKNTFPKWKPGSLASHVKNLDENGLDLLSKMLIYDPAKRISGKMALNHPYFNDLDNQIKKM

`CCNCc1cncc(-c2cnc3[nH]nc(-c4nc5cc(F)c(F)cc5[nH]4)c3c2)c1`: the IC50 in the series with HeLa is 140 nM; with HCT-116, 95 nM; in series [2], over 1000 nM; in [3] it was 100 nM; in the series with A-375, 46 nM. The molecule also came in with a solubility in series [1] of 12.5 mg/mL (≈ 30.8 mM).

As to `CCNCc1cncc(-c2cnc3n[nH]c(-c4nc5ccc(F)cc5[nH]4)c3c2)c1`, the IC50 in the series with HeLa was found to be 59 nM; in the series on HCT-116, 94 nM; in series [2] it was 800 nM; in series [3] it was 150 nM; in the series with A-375 it was 51 nM. For the same molecule, the Cmax in series [4] was 3.8 ng/mL; in [6] it was 217 ng/mL. The results for the AUC (in series [5]; in the series with Rattus norvegicus) were 150 ng·h/mL and 372 ng·h/mL, respectively. In series [1], this molecule had a solubility of 12.5 mg/mL (≈ 32.3 mM). The half-life in series [7] was 966 min; in series [8], 1880 min. Moreover, in series [9], the bioavailability came to 8%.

In the case of `OCc1cccc2[nH]c(-c3n[nH]c4ncc(-c5cncc6ccccc56)cc34)nc12`, the IC50 in the series with HeLa was 1760 nM; in [10], 240 nM; with HCT-116, 890 nM; in series [2], over 10000 nM; in [3] it was over 100000 nM.

For the molecule `COCc1cccc2[nH]c(-c3n[nH]c4ncc(-c5cncc6ccccc56)cc34)nc12`, the IC50 with HeLa stood at 15 nM; in the series on HCT-116, 10 nM; in [2], 320 nM; in [3], 460 nM; in the series on A-375 it was 10 nM.

`CC(C)OCc1cccc2[nH]c(-c3n[nH]c4ncc(-c5cncc6ccccc56)cc34)nc12`: the IC50 with HeLa was 2140 nM; with HCT-116, 2880 nM; in series [2], over 1000 nM; in [3], 100 nM; with A-375, 910 nM.

Take `COCc1cccc2[nH]c(-c3n[nH]c4ncc(-c5cnc6ccccc6c5)cc34)nc12`: the IC50 in the series on HeLa is 1460 nM; in series [10], over 100000 nM; in series [2] it was over 100000 nM; in series [3], over 100000 nM; in [11] it was over 100000 nM; with A-375, 11 nM.

As for `COCc1cccc2[nH]c(-c3n[nH]c4ncc(-c5ccncc5)cc34)nc12`, the IC50 was 3090 nM in the series on HeLa; 62 nM in the series with HCT-116; over 1000 nM in series [2]; 110 nM in series [3]; 23 nM with A-375.

Take `COCc1cccc2[nH]c(-c3n[nH]c4ncc(-c5cncnc5)cc34)nc12`: the IC50 in the series with HeLa worked out at 9910 nM; in the series with HCT-116, 330 nM; in [2] it was 10000 nM; in series [3], 110 nM; with A-375, 160 nM.

Turning to `CCN(CC)Cc1cccc2[nH]c(-c3n[nH]c4ncc(-c5cncc6ccccc56)cc34)nc12`, the concentration for half-maximal inhibition (IC50) stood at 29 nM in the series with HeLa; 89 nM in [10]; 31 nM in the series on HCT-116; 1.8 nM in [12]; 1550 nM in series [3]; 47 nM in the series with A-375.

On to `CN1CCN(c2ccc3[nH]c(-c4n[nH]c5ncc(-c6cncc7ccccc67)cc45)nc3c2)CC1`, for which the clearance in series [13] is 34.9 mL/min/kg. Moreover, the IC50 is 450 nM in the series on HeLa, 360 nM with HCT-116, 14 nM in series [12] and 160 nM with A-375. The Cmax was found to be 65 ng/mL in [4] and 1000 ng/mL in [6]. For the same molecule, the exposure (AUC) in [5] came out at 173 ng·h/mL; in series [14], 959 ng·h/mL. Moreover, the half-life in [7] is 43.8 min; in series [8] it was 198 min. Moreover, in series [9], the bioavailability worked out at 4%.

For `c1ccc2c(-c3cnc4[nH]nc(-c5nc6cc(N7CCOCC7)ccc6[nH]5)c4c3)cncc2c1`, the IC50 with HeLa worked out at 400 nM; in the series with HCT-116, 370 nM; in series [2], 41 nM; in series [3], 1070 nM; with A-375, 300 nM.

With `O=C(O)c1cccc2[nH]c(-c3n[nH]c4ncc(-c5cncc6ccccc56)cc34)nc12`, the IC50 (in the series with HeLa; in the series with HCT-116; in series [2]; in series [3]; in the series on A-375) was over 10000 nM throughout.

Regarding `CC(C)NC(=O)c1cccc2[nH]c(-c3n[nH]c4ncc(-c5cncc6ccccc56)cc34)nc12`, the IC50 in the series with HeLa was 35 nM; in the series with HCT-116 it was 42 nM; in series [2], over 100 nM; in [12], 39 nM; in [3], 380 nM; in the series with A-375, 65 nM.

As to `COCc1cccc2[nH]c(-c3n[nH]c4ncc(-c5cncc(CN(C)C)c5)cc34)nc12`, the IC50 in the series with HeLa is 1230 nM; with HCT-116, 190 nM; in [2] it was 3750 nM; in series [12], 120 nM; in [3] it was 1600 nM; with A-375, 330 nM.

In the case of `CCNCc1cncc(-c2cnc3[nH]nc(-c4nc5c(COC)cccc5[nH]4)c3c2)c1C`, the IC50 in [2] is 8020 nM; in series [12] it was 110 nM; in series [3] it was 4670 nM.

`CCN(CC)C(=O)c1cccc2[nH]c(-c3n[nH]c4ncc(-c5cncc6ccccc56)cc34)nc12`: the IC50 in the series on HeLa was 170 nM; in series [10] it was over 10000 nM; in the series with HCT-116, 55 nM; in series [2], 1000 nM; in series [3] it was 10000 nM; in the series with A-375, 71 nM.

Take `COCc1cccc2[nH]c(-c3nn(C)c4ncc(-c5cncc6ccccc56)cc34)nc12`: the half-inhibitory concentration (IC50) in the series on HeLa is 1170 nM; in the series with HCT-116, 200 nM; in series [2], 100000 nM; in series [12], 120 nM; in [3] it was over 100000 nM; in the series on A-375, 260 nM.

Turning to `c1ccc2c(-c3cnc4[nH]nc(-c5nc6ccccc6[nH]5)c4c3)cncc2c1`, the IC50 in the series with HeLa turned out to be 1700 nM; in the series on HCT-116 it was 550 nM; in [12] it was 23 nM; in the series with A-375, 870 nM.

`COC(=O)c1cccc2[nH]c(-c3n[nH]c4ncc(-c5cncc6ccccc56)cc34)nc12`: the IC50 in the series with HeLa is 10500 nM; in series [12], 10000 nM; in series [3], 100000 nM; in the series on A-375 it was 7380 nM.

In series [1], `CCCNCc1cncc(-c2cnc3[nH]nc(-c4nc5c(COC)cccc5[nH]4)c3c2)c1` displayed a solubility of 12.5 mg/mL (≈ 29.2 mM). The same molecule returned an IC50 in series [2] of 3990 nM.

For `CCNCc1cncc(-c2cnc3[nH]nc(-c4nc5cc(N6CCN(C)CC6)ccc5[nH]4)c3c2)c1`, the IC50 in the series on HeLa is 470 nM; in the series with HCT-116 it was 540 nM; in series [2] it was 280 nM; in series [12] it was 3 nM; in series [3], 25 nM; with A-375, 630 nM. Besides, the solubility in series [1] was determined as 12.5 mg/mL (≈ 26.7 mM).

`CNCc1cncc(-c2cnc3[nH]nc(-c4nc5c(COC)cccc5[nH]4)c3c2)c1`: the IC50 in the series on HeLa is 460 nM; in the series with HCT-116, 310 nM; in series [2], over 1000 nM; in series [12], 2.5 nM; in [3], 640 nM; in series [11], 1000 nM. The molecule also registered an IC50 with A-375 of 270 nM.

With `Cc1cccc2[nH]c(-c3n[nH]c4ncc(-c5cncc6ccccc56)cc34)nc12`, the IC50 in the series with HeLa was found to be 3090 nM; in series [10] it was 1000 nM; with HCT-116, 1640 nM; in series [3], 10000 nM; in the series with A-375, 1720 nM.

Consider `COCc1cccc2[nH]c(-c3n[nH]c4ncc(-c5cccnc5)cc34)nc12`, for which the IC50 in the series with HeLa is 650 nM; in the series on HCT-116, 19 nM; in series [2], over 1000 nM; in series [12] it was 29 nM; in [3], 160 nM; with A-375, 33 nM.

`CNCc1cncc(-c2cnc3[nH]nc(-c4nc5cc(OC(F)(F)F)ccc5[nH]4)c3c2)c1`: the IC50 was 55 nM in the series with HCT-116; 1000 nM in [2]; 9 nM in series [12]; over 100 nM in [3]; 47 nM in the series with A-375. The molecule further registered a solubility in series [1] of 12.5 mg/mL (≈ 28.4 mM).

Take `CC(C)NCc1cccc2[nH]c(-c3n[nH]c4ncc(-c5cncc6ccccc56)cc34)nc12`: the IC50 in the series with HeLa is 130 nM; in the series on HCT-116, 110 nM; in series [2], 3620 nM; in series [12] it was 13 nM; in series [3], 1000 nM; in the series with A-375 it was 140 nM.

Turning to `CCNCc1cncc(-c2cnc3[nH]nc(-c4nc5cc(OC)ccc5[nH]4)c3c2)c1`, the IC50 in the series with HeLa was 32 nM; with HCT-116, 49 nM; in [2], 360 nM; in series [3] it was over 100 nM; in [11], 1000 nM; with A-375 it was 100 nM. The molecule also returned a solubility in series [1] of 12.5 mg/mL (≈ 31.3 mM).

Values taken from ChEMBL document CHEMBL1140014, “Synthesis and evaluation of pyrazolo[3,4-b]pyridine CDK1 inhibitors as anti-tumor agents” (Bioorg Med Chem Lett, 2007).
